Data reported in paper PMC4340712, “Delineating the Biosynthesis of Gentamicin X2, the Common Precursor of the Gentamicin C Antibiotic Complex” (Chemistry & Biology, 2015).

Key:
GenS2 = molecular target: T1, GenS2 (Micromonospora echinospora, UniProt Q70KD4); assay: LC-ESI-HRMS of […]″-deamination; format: biochemical; conditions: 2-oxoglutarate 1 mM as amino acceptor, Tris-HCl pH 7.5, 30°C; reverse reaction; GenS2 alone
T1 construct: gene gtmD; full length, N-terminal His6 tag (pET28a), initiator Met lost, tag kept; E. coli BL21(DE3)

GenD2 = molecular target: T2, GenD2 (Micromonospora echinospora, UniProt Q70KD1); assay: coupled reverse reaction from kanamycin B, LC-ESI-HRMS; format: biochemical; conditions: NADH or NADPH 2.5 mM; ketone generated in situ by GenS2 with 2-oxoglutarate; Tris-HCl pH 7.5, 30°C
T2 construct: gene gtmC; full length, N-terminal His6 tag (pET28a), initiator Met lost, tag kept; E. coli BL21(DE3); 38,533 Da (calc. 38,539)

[1] = substrate: NC[C@H]1O[C@H](O[C@H]2[C@H](O)[C@@H](O[C@H]3O[C@H](CO)[C@@H](O)[C@H](N)[C@H]3O)[C@H](N)C[C@@H]2N)[C@H](N)[C@@H](O)[C@@H]1O; assay: SAM-dependent N-methylation kinetics (details in supplement); format: biochemical, Micromonospora echinospora; conditions: co-substrate SAM; 3″-N-methylation

T1 sequence (Q70KD4 2-418): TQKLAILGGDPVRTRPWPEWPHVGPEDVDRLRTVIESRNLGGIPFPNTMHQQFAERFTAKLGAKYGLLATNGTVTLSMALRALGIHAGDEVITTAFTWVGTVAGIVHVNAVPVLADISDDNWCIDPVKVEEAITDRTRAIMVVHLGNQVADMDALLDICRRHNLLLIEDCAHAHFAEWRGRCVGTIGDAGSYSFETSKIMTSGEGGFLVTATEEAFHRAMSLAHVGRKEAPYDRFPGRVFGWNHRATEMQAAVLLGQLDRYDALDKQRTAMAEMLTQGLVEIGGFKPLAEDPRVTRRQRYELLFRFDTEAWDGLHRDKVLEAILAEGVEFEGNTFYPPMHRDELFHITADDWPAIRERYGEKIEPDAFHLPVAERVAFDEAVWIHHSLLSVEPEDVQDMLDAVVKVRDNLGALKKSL
T2 sequence (Q70KD1 entry or part of it): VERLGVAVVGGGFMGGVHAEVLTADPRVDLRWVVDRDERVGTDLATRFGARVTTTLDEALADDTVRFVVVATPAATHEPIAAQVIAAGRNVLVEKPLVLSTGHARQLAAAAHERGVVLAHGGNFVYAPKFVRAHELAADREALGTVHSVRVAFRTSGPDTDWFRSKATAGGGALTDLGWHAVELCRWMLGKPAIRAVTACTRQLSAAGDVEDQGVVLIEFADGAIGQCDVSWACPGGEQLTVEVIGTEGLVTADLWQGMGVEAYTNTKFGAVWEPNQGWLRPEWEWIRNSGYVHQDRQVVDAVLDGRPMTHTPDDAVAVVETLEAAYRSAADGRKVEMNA

Molecule: NC[C@H]1O[C@H](O[C@H]2[C@H](O)[C@@H](O[C@H]3O[C@H](CO)[C@@H](O)[C@H](N)[C@H]3O)[C@H](N)C[C@@H]2N)[C@H](N)[C@@H](O)[C@@H]1O [compound 11, kanamycin B]
- LC-ESI-HRMS of 3′′-deamination (GenS2): LC-ESI-HRMS analysis showed that GenS2 catalyzed low-level deamination of both compounds

Molecule: NC[C@H]1O[C@H](O[C@H]2[C@H](O)[C@@H](O[C@H]3O[C@H](CO)[C@@H](O)[C@H](N)[C@H]3O)[C@H](N)C[C@@H]2N)[C@H](N)C[C@@H]1O [compound 12, tobramycin]
- LC-ESI-HRMS of 3′′-deamination (GenS2): LC-ESI-HRMS analysis showed that GenS2 catalyzed low-level deamination of both compounds

Molecule: NC[C@H]1O[C@H](O[C@H]2[C@H](O)[C@@H](O[C@H]3O[C@H](CO)[C@@H](O)C(=O)[C@H]3O)[C@H](N)C[C@@H]2N)[C@H](N)[C@@H](O)[C@@H]1O [compound 13, 3″-deamino-3″-oxo-kanamycin B]
- coupled reverse reaction from kanamycin B, LC-ESI-HRMS (GenD2): in the presence of GenS2 and GenD2 (and either NADH or NADPH) essentially quantitative yields

B1: GenN (Micromonospora echinospora) (protein)
chain: IVGGSTIQPERVDAAALRQLGDAMRKVVGSADPTPLADLLSGTPVDPDELTREVGADGRQALLDSGMAVDDGTTFSSPLRGHQLHGVVVLSDPDVEEEVQHRWYVDPLWEADLLIRLMLRRGGARALDMGCGSGVLSLVLADRYESVLGVDVNPRAVALSRLNAALNGLTNVTFREGDMFEPAEGRFSRIVFNSPTNEEGNEFVDLLEAGEPILETFFRNVPRKLESGGIVEVNLAMNDYPGDPFRERLADWLGLTENGLRVQIFTSQRRATESGGEWKRGWLVVAPGPVGLTEVEWPYHDRYEEDPDALLDGTDRLLRG
notes: full length, N-terminal His6 tag (pET28a), initiator Met lost, tag kept; E. coli BL21(DE3)
- Km [1]: 34 ± 3.8 µM
- kcat [1]: 1.93 ± 0.1 s⁻¹
